Experimental data from PubChem BioAssay (NCI).
Values joined by “and” are separate entries in the source; they are usually repeats but may differ in a detail not shown here. Equal values may be shown once.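 Exposure lasted 48 hours, with cells grown in 96-well plates and compounds tested at five concentrations. Here, GI50 denotes the concentration required for 50% inhibition of growth. The concentration for full growth arrest is given as TGI.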

Columns and labels:
Assay in all cases: DTP human tumour cell line panel, 48 h
[1] = test system: A498 renal
[2] = test system: MOLT-4 leukemia
[3] = test system: HT29 colon
[4] = test system: MDA-MB-435
[5] = test system: T-47D breast
[6] = test system: SK-OV-3 ovarian
[7] = test system: HCT-15 colon
[8] = test system: HOP-92 NSCLC
[9] = test system: OVCAR-5 ovarian
[10] = test system: DU-145 prostate

## CC12CC3OC(=O)C1COC14OC5(C2C1=O)C(O)(CCC1C4CC2OC24CC=CC(=O)C14C)C(=O)OC35C (stereo not drawn)
[1]
  TGI: 43.3 µM
[2]
  TGI: 66.9 µM
[3]
  TGI: > 100 µM
[4]
  TGI: 32.9 µM
[5]
  TGI: 37.3 µM
[6]
  TGI: > 100 µM
[7]
  TGI: 37.7 µM
[8]
  TGI: 68.1 µM
[9]
  TGI: 34.9 µM
[10]
  TGI: 27.7 µM

## CC(=O)OC(Cc1ccc2ccccc2n1)(C(F)(F)F)C(F)(F)F
[1]
  TGI: 14.6 µM
[2]
  TGI: 16 µM
[3]
  TGI: 5.43 µM
[4]
  TGI: 3.55 µM
[5]
  TGI: 0.912 µM
[6]
  TGI: 33 µM
[7]
  TGI: 7.46 µM
[8]
  TGI: 0.933 µM
[9]
  TGI: 10.2 µM
[10]
  TGI: 17.9 µM

## CSc1cc(-c2ccccn2)nc(-c2ccccn2)c1
[1]
  TGI: 2.76 µM
[2]
  TGI: > 100 µM
[3]
  TGI: 13 µM
[4]
  TGI: 12.9 µM
[5]
  TGI: 17.6 µM
[6]
  TGI: 10.8 µM
[7]
  TGI: 4.11 µM
[8]
  TGI: 2.91 µM
[9]
  TGI: 9.46 µM
[10]
  TGI: 26.6 µM

## CCOC(=O)c1c(Br)c(-c2ccc(OC)cc2)c(Br)n1C
[1]
  TGI: 49.6 µM
[2]
  GI50: 17.8 µM
  TGI: > 100 µM
[3]
  TGI: 56.3 µM
[4]
  GI50: 4.47 µM
  TGI: 7.71 µM and 29.3 µM
[5]
  TGI: 82.1 µM
[6]
  TGI: > 100 µM
[7]
  TGI: 64.2 µM
[8]
  GI50: 0.0721 µM
  TGI: 14.1 µM
[9]
  TGI: > 100 µM
[10]
  TGI: > 100 µM

## COc1cc(O)c2c(=O)c3c(C)cccc3n(C)c2c1
[1]
  TGI: > 10 µM
[2]
  TGI: > 10 µM
[3]
  TGI: > 10 µM
[4]
  TGI: > 10 µM
[5]
  TGI: > 10 µM
[6]
  TGI: > 10 µM
[7]
  TGI: > 10 µM
[8]
  TGI: > 10 µM
[9]
  TGI: > 10 µM
[10]
  TGI: > 10 µM

## CCOC(=O)c1cc(I)c(-c2cc(C)no2)n1C
[1]
  TGI: > 100 µM
[2]
  TGI: 71.6 µM
[3]
  TGI: > 100 µM
[4]
  TGI: > 100 µM
[5]
  TGI: > 100 µM
[6]
  TGI: > 100 µM
[7]
  TGI: > 100 µM
[8]
  TGI: > 100 µM
[9]
  TGI: > 100 µM
[10]
  TGI: > 100 µM

## CCOC(=O)C(CC(C)C)NC(=O)CSc1nnc(COc2ccc(Cl)cc2)n1-c1ccccc1 (stereo not drawn)
[1]
  TGI: 28.2 µM
[2]
  TGI: > 100 µM
[3]
  TGI: 32.7 µM
[4]
  TGI: 35.6 µM
[5]
  TGI: 45.3 µM
[6]
  TGI: 59.8 µM
[7]
  TGI: 37.1 µM
[8]
  TGI: 39.8 µM
[9]
  TGI: 39.4 µM
[10]
  TGI: 32.4 µM

## O=C1Nc2ccccc2Cn2c1cc1oc(-c3ccccc3)cc12
[1]
  TGI: > 100 µM
[2]
  TGI: > 100 µM
[3]
  TGI: > 100 µM
[4]
  TGI: > 100 µM
[5]
  TGI: 92.6 µM
[6]
  TGI: 69.9 µM
[7]
  TGI: > 100 µM
[8]
  TGI: 73.7 µM
[9]
  TGI: > 100 µM
[10]
  TGI: > 100 µM

## COC12CCCN1c1ccn(Cc3ccccc3)c(=O)c1C2=O (stereo not drawn)
[1]
  TGI: > 100 µM
[2]
  TGI: > 100 µM
[3]
  TGI: > 100 µM
[4]
  TGI: > 100 µM
[5]
  TGI: > 100 µM
[6]
  TGI: > 100 µM
[7]
  TGI: > 100 µM
[8]
  TGI: > 100 µM
[9]
  TGI: > 100 µM
[10]
  TGI: > 100 µM
